Where a name gives a salt, the structure may show the parent alone.
Tested on: A549 cells
Experiment: Cytotoxicity against A549 cells, Alamar Blue
Type: cell-based
Details: Homo sapiens, A549, 65 h; Supplementary Table 1; compound 0.5 mM; percentage of controls (n=1)
Method: (§1) Cytotoxic effects against HeLa and A549 cells were determined in a similar manner. Briefly, the cells were cultured in DMEM supplemented with 10% FCS and 2 mM L-Glutamine. Cells were plated at initial cell concentration of 2 × 10^4 cells/well and incubated with the compounds for ~65 hours prior to addition of Alamar Blue solution for a further 5 hours.

Row | SMILES | viability at 500 µM
1 | Cn1nc(-c2ccccc2)cc1N [compound 376, 1‐methyl‐3‐phenyl‐1H‐pyrazol‐5‐amine] | 64.7%
2 | CSc1ccc(Cl)cc1N [compound 382, 5‐chloro‐2‐(methylthio)aniline] | 60.7%
3 | Cc1onc(-c2ccccc2)c1N [compound 384, 5‐methyl‐3‐phenyl‐4‐isoxazolamine] | 75.5%
4 | OCc1ccc(-n2cccn2)cc1 [compound 385, [4‐(1H‐pyrazol‐1‐yl)phenyl]methanol] | 118%
5 | OCc1ccc(-n2ccnc2)cc1 [compound 386, [4‐(1H‐imidazol‐1‐yl)phenyl]methanol] | 101%
6 | C#Cc1ccc(OCCCC)cc1 [compound 388, 1‐butoxy‐4‐eth‐1‐ynylbenzene] | 114%
7 | OCc1ncoc1-c1ccccc1 [compound 397, (5‐phenyl‐1,3‐oxazol‐4‐yl)methanol] | 56.4%
8 | Cn1ccc2ccc(C(=O)O)cc21 [compound 398, 1‐methyl‐1H‐indole‐6‐carboxylic acid] | 101%
9 | NCc1cc(Cl)cc(Cl)c1 [compound 405, 3,5‐dichlorobenzylamine] | 84.1%
10 | OCc1ccccc1C(F)(F)F [compound 407, [2‐(trifluoromethyl)phenyl]methanol] | 90.2%
11 | Nc1ccc(N2CCCCC2)cc1 [compound 413, 4‐piperidinoaniline] | 53.2%
12 | ON=C1CN2CCC1CC2 [compound 416, quinuclidin‐3‐one oxime hydrochloride] | 109%
13 | Nc1cccc(OC(F)(F)F)c1 [compound 419, 3‐(trifluoromethoxy)aniline] | 85%
14 | O=C1N[C@@H](Cc2ccccc2)CO1 [compound 421, (S)‐4‐BENZYL‐2‐OXAZOLIDINONE] | 80.2%
15 | COC(=O)C1Cc2ccccc2N1 (stereo not drawn) [compound 422, methyl 2‐indolinecarboxylate] | 40.1%
16 | Nc1nc(-c2ccccc2)ns1 [compound 423, 3‐phenyl‐1,2,4‐thiadiazol‐5‐amine] | 52.7%

Same assay, conditions: Supplementary Table 1; compound 0.5 mM; percentage of controls (n=1)

Row | SMILES | A549 Cells Alamar Blue
17 | NCC1COc2ccccc2O1 (stereo not drawn) [compound 309, 2,3‐dihydro‐1,4‐benzodioxin‐2‐ylmethylamine] | 68.9 percentage of controls
18 | Cn1nc(O)cc1C(F)(F)F [compound 316, 1‐methyl‐5‐(trifluoromethyl)‐1H‐pyrazol‐3‐ol] | 95.3 percentage of controls
19 | OCC1COc2ccccc2O1 (stereo not drawn) [compound 319, 2,3‐dihydro‐1,4‐benzodioxin‐2‐ylmethanol] | 86.4 percentage of controls
20 | OCc1ccc2c(c1)OCCO2 [compound 320, 2,3‐dihydro‐1,4‐benzodioxin‐6‐ylmethanol] | 78.8 percentage of controls
21 | OCc1cccc2c1OCCO2 [compound 322, 2,3‐dihydro‐1,4‐benzodioxin‐5‐ylmethanol] | 96.4 percentage of controls
22 | CC12CC(=O)CC1(C)CC(=O)C2 (stereo not drawn) [compound 324, 3a,6a‐dimethylperhydropentalene‐2,5‐dione] | 94.2 percentage of controls
23 | CC12CCC(CC1=NO)C2(C)C (stereo not drawn) [compound 332, 1,7,7‐trimethylbicyclo[2.2.1]heptan‐2‐one oxime] | 93.9 percentage of controls
24 | O=C(O)C1CC2CC1CCC2O (stereo not drawn) [compound 345, 2‐hydroxybicyclo[3.2.1]octane‐6‐carboxylic acid] | 127 percentage of controls
25 | COC(=O)c1scc(C)c1N [compound 354, methyl 3‐amino‐4‐methylthiophene‐2‐carboxylate] | 32.3 percentage of controls
26 | OCc1scc2c1OCCO2 [compound 361, 2,3‐dihydrothieno[3,4‐b][1,4]dioxin‐5‐ylmethanol] | 93.7 percentage of controls
27 | CNCc1nn(C)c2ccccc12 [compound 401, N‐methyl‐N‐[(1‐methyl‐1H‐indazol‐3‐yl)methyl]amine] | 91.7 percentage of controls

Tested on: HeLa cells
Experiment: cells
Details: Homo sapiens, HeLa, 65 h, read-out: HeLa Cells Alamar Blue
Method: as §1

Row | SMILES | viability at 500 µM
28 | Cn1nc(-c2ccccc2)cc1N [compound 376, 1‐methyl‐3‐phenyl‐1H‐pyrazol‐5‐amine] | 82.6 ± 4.6%
29 | CSc1ccc(Cl)cc1N [compound 382, 5‐chloro‐2‐(methylthio)aniline] | 110 ± 13.3%
30 | Cc1onc(-c2ccccc2)c1N [compound 384, 5‐methyl‐3‐phenyl‐4‐isoxazolamine] | 80.8 ± 13.4%
31 | OCc1ccc(-n2cccn2)cc1 [compound 385, [4‐(1H‐pyrazol‐1‐yl)phenyl]methanol] | 83.4 ± 12.4%
32 | OCc1ccc(-n2ccnc2)cc1 [compound 386, [4‐(1H‐imidazol‐1‐yl)phenyl]methanol] | 103 ± 15.3%
33 | C#Cc1ccc(OCCCC)cc1 [compound 388, 1‐butoxy‐4‐eth‐1‐ynylbenzene] | 107 ± 8%
34 | OCc1ncoc1-c1ccccc1 [compound 397, (5‐phenyl‐1,3‐oxazol‐4‐yl)methanol] | 18.2 ± 7.9%
35 | Cn1ccc2ccc(C(=O)O)cc21 [compound 398, 1‐methyl‐1H‐indole‐6‐carboxylic acid] | 109 ± 10.3%
36 | NCc1cc(Cl)cc(Cl)c1 [compound 405, 3,5‐dichlorobenzylamine] | 77.7 ± 13.9%
37 | OCc1ccccc1C(F)(F)F [compound 407, [2‐(trifluoromethyl)phenyl]methanol] | 104 ± 13.9%
38 | Nc1ccc(N2CCCCC2)cc1 [compound 413, 4‐piperidinoaniline] | 11.6 ± 5.1%
39 | ON=C1CN2CCC1CC2 [compound 416, quinuclidin‐3‐one oxime hydrochloride] | 107 ± 9.6%
40 | Nc1cccc(OC(F)(F)F)c1 [compound 419, 3‐(trifluoromethoxy)aniline] | 105 ± 11.1%
41 | O=C1N[C@@H](Cc2ccccc2)CO1 [compound 421, (S)‐4‐BENZYL‐2‐OXAZOLIDINONE] | 86 ± 5.1%
42 | COC(=O)C1Cc2ccccc2N1 (stereo not drawn) [compound 422, methyl 2‐indolinecarboxylate] | 11.1 ± 5.7%
43 | Nc1nc(-c2ccccc2)ns1 [compound 423, 3‐phenyl‐1,2,4‐thiadiazol‐5‐amine] | 82.7 ± 3.9%

Same assay, conditions: Supplementary Table 1; compound 0.5 mM; percentage of controls; mean ± SD (n=3) or SE (n=2)

Row | SMILES | HeLa Cells Alamar Blue
44 | NCC1COc2ccccc2O1 (stereo not drawn) [compound 309, 2,3‐dihydro‐1,4‐benzodioxin‐2‐ylmethylamine] | 12.3 ± 8.8 percentage of controls
45 | Cn1nc(O)cc1C(F)(F)F [compound 316, 1‐methyl‐5‐(trifluoromethyl)‐1H‐pyrazol‐3‐ol] | 111.8 ± 17.2 percentage of controls
46 | OCC1COc2ccccc2O1 (stereo not drawn) [compound 319, 2,3‐dihydro‐1,4‐benzodioxin‐2‐ylmethanol] | 102.6 ± 5.1 percentage of controls
47 | OCc1ccc2c(c1)OCCO2 [compound 320, 2,3‐dihydro‐1,4‐benzodioxin‐6‐ylmethanol] | 111.9 ± 16.4 percentage of controls
48 | OCc1cccc2c1OCCO2 [compound 322, 2,3‐dihydro‐1,4‐benzodioxin‐5‐ylmethanol] | 100.4 ± 14.9 percentage of controls
49 | CC12CC(=O)CC1(C)CC(=O)C2 (stereo not drawn) [compound 324, 3a,6a‐dimethylperhydropentalene‐2,5‐dione] | 103.2 ± 21.9 percentage of controls
50 | CC12CCC(CC1=NO)C2(C)C (stereo not drawn) [compound 332, 1,7,7‐trimethylbicyclo[2.2.1]heptan‐2‐one oxime] | 110.6 ± 8.3 percentage of controls
51 | O=C(O)C1CC2CC1CCC2O (stereo not drawn) [compound 345, 2‐hydroxybicyclo[3.2.1]octane‐6‐carboxylic acid] | 87.4 ± 13 percentage of controls
52 | COC(=O)c1scc(C)c1N [compound 354, methyl 3‐amino‐4‐methylthiophene‐2‐carboxylate] | 72.8 ± 8.6 percentage of controls
53 | OCc1scc2c1OCCO2 [compound 361, 2,3‐dihydrothieno[3,4‐b][1,4]dioxin‐5‐ylmethanol] | 68.5 ± 12.9 percentage of controls
54 | CNCc1nn(C)c2ccccc12 [compound 401, N‐methyl‐N‐[(1‐methyl‐1H‐indazol‐3‐yl)methyl]amine] | 92.5 ± 7.4 percentage of controls
